Measurements taken from publication PMC12040169 (PLOS Biology, 2025).

Assay: in vitro
Conditions: human, hela cells, % viability

| SMILES | viability at 28.5 h, 10 µM [%] |
| --- | --- |
| O=C(NC(Nc1cccc(C(F)(F)F)c1)C(=O)c1ccccc1)c1ccc(Cl)cc1 (stereo not drawn) [CBK263585] | 89.5 |
| [O-][n+]1c2c([n+]([O-])c3c1CCCC3)CCCCC2 [CBK263586] | 95.5 |
| O=C(c1ccc(S(=O)(=O)N2CCCC2)cc1)N1CCN(C/C=C/c2ccccc2)CC1 [CBK263587] | 103 |
| O=C(NCc1ccc2c(c1)OCO2)c1ccc(S(=O)(=O)N2CCCC2)cc1 [CBK263590] | 108 |
| COc1ccc(N2C(=O)CC(NCCNc3ccc([N+](=O)[O-])cn3)C2=O)cc1 (stereo not drawn) [CBK263593] | 85.3 |
| O=C(COc1ccccc1)Nc1ccccc1CO [CBK263596] | 97.9 |
| O=C(O)CCC(NC(=O)c1ccc(Cl)cc1)C(=O)O (stereo not drawn) [CBK263597] | 94.2 |
| O=C(COc1ccc2ccccc2c1)Nc1ccc(Cl)cc1Cl [CBK263598] | 106 |
| Cc1ccc(OCC(=O)Nc2ccccc2CO)cc1 [CBK263600] | 88.7 |
| COC(=O)CC(C)(C)/C(C)=N/NS(=O)(=O)c1ccc(C)cc1 [CBK263602] | 86.7 |
| O=C(O)c1ccc(N2C(=O)c3ccc(Oc4ccc(S(=O)(=O)c5ccc(C(=O)O)cc5)cc4)cc3C2=O)cc1 [CBK263603] | 96.8 |
| O=C(COc1cccc([N+](=O)[O-])c1)Nc1cc(C(=O)O)cc(C(=O)O)c1 [CBK263604] | 114 |
| N=C1NC(=O)/C(=C/c2ccc(OS(=O)(=O)c3ccc4ccccc4c3)cc2)S1 [CBK263605] | 106 |
| O=C(O)c1ccc(S(=O)(=O)c2ccc(Oc3ccc4c(c3)C(=O)N(c3cccc(C(=O)O)c3)C4=O)cc2)cc1 [CBK263608] | 96.7 |
| COc1cc(/C=C2\SC(=N)NC2=O)cc(Br)c1OS(=O)(=O)c1ccc(C)cc1 [CBK263609] | 95.1 |
| N=C1NC(=O)/C(=C/c2cccc(OCc3cccc4ccccc34)c2)S1 [CBK263610] | 93.9 |
| CC1=NN(c2ccc(S(N)(=O)=O)cc2)C(=O)/C1=C\c1ccc(-c2ccc(Cl)c([N+](=O)[O-])c2)o1 [CBK263612] | 98.8 |
| O=C(/C=C/c1ccc([N+](=O)[O-])cc1)Nc1ccc(O)cc1C(=O)O [CBK263613] | 81 |
| O=C(/C=C/c1cccc([N+](=O)[O-])c1)Nc1ccc(O)cc1C(=O)O [CBK263615] | 87.3 |
| CC(NC(=O)/C(=C\c1ccc(Cl)cc1)NC(=O)c1ccco1)C(=O)O (stereo not drawn) [CBK263617] | 93 |
| Cc1nc(SCC(=O)O)nc(O)c1Oc1ccccc1 [CBK263621] | 103 |
| OCCN(CC#CCC(O)(c1ccccc1)c1ccccc1)CCO [CBK263623] | 94.1 |
| O=C(NCCN1CCOCC1)c1cc(-c2cccc(Br)c2)nc2ccccc12 [CBK263625] | 90.2 |
| COc1cc2nc3c4ccccc4n(CC(=O)O)c3nc2cc1OC [CBK263626] | 86.8 |
| COc1ccc(OC(C)C(=O)Nc2cc(OC)c(Cl)cc2OC)cc1 (stereo not drawn) [CBK263627] | 96 |
| COC(=O)CCNc1nc(-c2ccc(Br)cc2)nc2ccccc12 [CBK263628] | 97.9 |
| O=C(NCCCN1CCOCC1)c1c(Cl)cccc1Cl [CBK263631] | 93 |

| SMILES | viability at 28.5 h, 10 µM [%] |
| --- | --- |
| COc1ccc(CN2CCN(Cc3cc(Br)ccc3O)CC2)cc1OC [CBK263632] | 95.5 |
| O=C(CCCN1C(=O)/C(=C\c2cccs2)SC1=S)Nc1cccc(C(=O)O)c1 [CBK263636] | 98.4 |
| O=C(c1cccnc1)N1CCN(CCN2C(=O)C3C4C=CC(C4)C3C2=O)CC1 (stereo not drawn) [CBK263639] | 98.2 |
| CC(C)(C)c1ccc(/C=C/C(=O)n2cccn2)cc1 [CBK263645] | 85.7 |
| COc1ccc(C2CC(=O)C(=CNCCCN3CCOCC3)C(=O)C2)cc1 (stereo not drawn) [CBK263647] | 84.9 |
| Cc1ccc(C)c(NC(=O)c2sc3cc(C)ccc3c2Cl)c1 [CBK263648] | 90.3 |
| Cc1ccnc(NS(=O)(=O)c2ccc(NC(=O)c3cc(-c4ccc(Br)cc4)nc4ccccc34)cc2)n1 [CBK263650] | 96.8 |
| CCOc1ccc(/N=c2\scc(-c3ccc(OC)c(Br)c3)n2CCc2ccccc2)cc1 [CBK263654B] | 74.7 |
| COc1cc(/C=C2/SC(=S)N(CCC(=O)N3CCN(C)CC3)C2=O)cc(OC)c1OC [CBK263656] | 88.1 |
| COc1ccc(NC(=O)CSc2nc(O)cc(-c3ccccc3)n2)cc1OC [CBK263657] | 96.1 |
| Cc1cc(OCC(=O)NCc2cccnc2)cc(C)c1Cl [CBK263658] | 86.5 |
| CCNC(=S)N1CCN(CCNC=C2C(=O)CC(C)(C)CC2=O)CC1 [CBK263661] | 90.1 |
| Oc1ccc(Br)cc1CN1CCN(Cc2cccc3ccccc23)CC1 [CBK263662] | 87 |
| CCCCOC(=O)c1ccc(NC(=O)c2c(Cl)cccc2Cl)cc1 [CBK263664] | 88.2 |
| O=C1CC(c2ccco2)CC(=O)C1=CNCCN1CCNCC1 (stereo not drawn) [CBK263668] | 99.7 |
| O=C(CCCN1C(=O)/C(=C\c2cccs2)SC1=S)Nc1cc(Cl)ccc1O [CBK263673] | 99.5 |
| O=C(O)c1cc(-c2cccnc2)nc2ccc(Br)cc12 [CBK263674] | 105 |
| O=C(O)C1C2CCC(O2)C1C(=O)Nc1ccc2c(c1)OCCO2 (stereo not drawn) [CBK263677] | 103 |
| Cc1ccc(CN2C(=O)CSC2c2cn(-c3ccccc3)nc2-c2ccccc2)cc1 (stereo not drawn) [CBK263678] | 94.5 |
| Cc1ccc(C(=O)O)cc1NC(=O)C1CCCCC1C(=O)O (stereo not drawn) [CBK263679] | 93.5 |
| COc1ccc(C(=O)NC(Nc2ccccc2)C(Cl)(Cl)Cl)cc1OC (stereo not drawn) [CBK263680] | 106 |
| O=C(O)CCC(=O)c1cccc([N+](=O)[O-])c1 [CBK263681] | 101 |
| Cc1ccc2c(Cl)c(-c3nnc(-c4ccc(Cl)cc4)o3)sc2c1 [CBK263682] | 106 |
| CCC12CN3CC(CC)(CN(C1)C3c1ccc([N+](=O)[O-])cc1)C2=O (stereo not drawn) [CBK263689] | 108 |
| O=C(CCCOc1ccccc1)Nc1ccc([N+](=O)[O-])cc1 [CBK263690] | 97.9 |
| O=C(NC(=S)Nc1ccc2oc(-c3cccc4ccccc34)nc2c1)c1ccco1 [CBK263691] | 95.5 |
| c1ccc(CCNc2c3c(nc4ccccc24)CCC3)cc1 [CBK263693C] | 92.2 |

| SMILES | viability at 28.5 h, 10 µM [%] |
| --- | --- |
| O=C1c2ccccc2C(=O)N1CSc1nnc(SCN2C(=O)c3ccccc3C2=O)s1 [CBK263694] | 96.9 |
| CC(C)(C)c1ccc(/C=N/NC(=O)CCSc2ccc(Cl)cc2)cc1 [CBK263696] | 105 |
| O=C(Nc1cccc(C(=O)O)c1)/C(=C\c1ccc2c(c1)OCO2)NC(=O)c1ccccc1 [CBK263697] | 113 |
| CN1CN=C2SC3(COC(c4cccc(Br)c4)OC3)C(=O)N2C1 (stereo not drawn) [CBK263700] | 93.1 |
| O=C(/C=C/c1ccccc1)ONC(=O)c1ccc(Cl)cc1 [CBK263702] | 111 |
| COc1ccc(C2Nc3ccccc3C(=O)N2c2ccc(C)cc2)cc1Cn1nc(C)c([N+](=O)[O-])c1C (stereo not drawn) [CBK263703] | 106 |
| O=C(Nc1cccc(C(=O)O)c1)/C(=C\c1ccccc1)NC(=O)c1ccccc1Cl [CBK263710] | 90.4 |
| Cc1ccc(-c2nn(-c3cc(N4CCN(CCO)CC4)ccc3[N+](=O)[O-])c(=O)c3ccccc23)cc1C [CBK263713] | 82.6 |
| COC(=O)c1cc(Br)ccc1NC(=O)COc1ccccc1C [CBK263715] | 89.4 |
| CC1CCN(S(=O)(=O)c2cc(S(=O)(=O)N3CCC(C)CC3)c3cccc4c3c2NC4=O)CC1 [CBK263716] | 91.2 |
| O=C(Nc1cccc(C(=O)O)c1)/C(=C\c1ccc2c(c1)OCO2)NC(=O)c1ccc(Br)o1 [CBK263720] | 99 |
| O=C(NCCCNc1ccc(C(F)(F)F)cc1[N+](=O)[O-])c1ccc(Cl)cc1 [CBK263721] | 99 |
| O=C(Nc1ccc(C(=O)O)cc1)/C(=C\c1ccco1)NC(=O)c1ccccc1Cl [CBK263726] | 113 |
| CN(C)CCNc1c2c(nc3ccccc13)CCC2 [CBK263732C] | 98.1 |
| COCCN(CCOC)Cc1c(O)ccc2c3c(c(=O)oc12)CCC3 [CBK263733] | 75.4 |
| COc1ccc(/C=N/NC(=O)c2cc[nH]n2)cc1CSc1nc2ccccc2s1 [CBK263734] | 103 |
| N/C(=N\OC(=O)COc1ccc2ccccc2c1)c1ccncc1 [CBK263737] | 89.1 |
| NC(=O)c1ccc(NC(=O)COc2ccc3ccccc3c2)cc1 [CBK263738] | 101 |
| CC(C)C12CN3CC(C(C)C)(CN(C1)C3c1c[nH]c3ccccc13)C2=O (stereo not drawn) [CBK263740] | 96.1 |
| CS(=O)(=O)NCCCNc1ccc(C(F)(F)F)cc1[N+](=O)[O-] [CBK263741] | 73.1 |
| O=C(/C=C/c1ccccc1)NC(=S)Nc1cccc(-c2nc3ncccc3o2)c1 [CBK263742] | 103 |
| Cc1ccccc1Nc1nnc(-c2ccc(C(=O)NCCO)cc2)c2ccccc12 [CBK263743] | 86.4 |
| Cc1cc(C)c(OCCOCCN2CCN(C)CC2)c(Cl)c1 [CBK263744G] | 98.6 |
| Cn1cc(/C=C(\C(=O)O)C(C(=O)O)=C2C3CC4CC(C3)CC2C4)c2ccccc21 [CBK263749] | 96.5 |
| O=C(Nc1ccc2ccccc2c1)c1ccccc1N(Cc1ccccc1)S(=O)(=O)c1ccccc1 [CBK263751] | 91.5 |

Same assay, conditions: human, hela cells, % viability, bulk resorufin, single well

| SMILES | viability at 28.5 h, 10 µM [%] |
| --- | --- |
| Cc1cc(C)cc(N2C(=O)NC(=O)/C(=C\c3ccccc3Br)C2=O)c1 [CBK263588] | 100 |
| CCOc1cc(C=C2C(=O)NC(=O)NC2=O)ccc1OS(=O)(=O)c1ccc([N+](=O)[O-])cc1 [CBK263614] | 82.9 |
| COc1ccc(CN2CCN(Cc3cc(Br)ccc3O)CC2)cc1 [CBK263640] | 99.4 |
| O=C(COc1ccc(C=C2C(=O)NC(=O)NC2=O)cc1)NCC1CCCO1 (stereo not drawn) [CBK263709] | 91.9 |
| O=C(COc1ccc(C=C2C(=O)NC(=O)NC2=O)cc1)NCc1ccccc1 [CBK263736] | 93.3 |
